Laboratory results published in paper PMC9250534, “Synthesis and direct assay of large macrocycle diversities by combinatorial late-stage modification at picomole scale” (Nature Communications, 2022).
Numbered stars: 1 amine (or outer) side, 2 acyl side, 3 side chain; on linkers, the order of the positions; unused ones are H or OH. Bridge positions count the residues as written; N and C are the ends. Square brackets hold non-standard residues; d marks the D form. Peptide text beside a SMILES is read from it. * marks the point of attachment. Pro(4S-NHCO(5-Cl-2-thienyl)) = O=C(N[C@@H]1CN[C@H](C(=O)O)C1)c1ccc(Cl)s1; 2Thenoyl(5-Cl) = O=C(c1ccc(Cl)s1)*; Benzoyl(4-Cl) = O=C(c1ccc(Cl)cc1)*; Cysteamide = C(CS[*:3])N[*:1]; X1 = O=C(/C=C/c1ccccc1)*; Api = NC1(C(=O)O)CCNCC1; Dap = NC[C@H](N)C(=O)O; X2 = O=C(C=Cc1ccccc1)*; Mpa = O=C(O)CCS

Molecular target: MDM2 (Homo sapiens, UniProt Q00987)
Assay: MDM2 binding screen: displacement of fluorescent p53 peptide probe FP53 (fluorescence polarization)
Details: crude macrocycle reactions; for fraction fluorescent probe displaced, Screen: initial screen
How it was run: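 Macrocycle reaction products at a final 10 µM were tested for displacement of a p53-based fluorescent peptide from human MDM2. Fluorescence anisotropy (ex 485/em 535 nm) was read once per macrocycle at 25 °C.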

MDM2, sequence (Q00987 whole entry): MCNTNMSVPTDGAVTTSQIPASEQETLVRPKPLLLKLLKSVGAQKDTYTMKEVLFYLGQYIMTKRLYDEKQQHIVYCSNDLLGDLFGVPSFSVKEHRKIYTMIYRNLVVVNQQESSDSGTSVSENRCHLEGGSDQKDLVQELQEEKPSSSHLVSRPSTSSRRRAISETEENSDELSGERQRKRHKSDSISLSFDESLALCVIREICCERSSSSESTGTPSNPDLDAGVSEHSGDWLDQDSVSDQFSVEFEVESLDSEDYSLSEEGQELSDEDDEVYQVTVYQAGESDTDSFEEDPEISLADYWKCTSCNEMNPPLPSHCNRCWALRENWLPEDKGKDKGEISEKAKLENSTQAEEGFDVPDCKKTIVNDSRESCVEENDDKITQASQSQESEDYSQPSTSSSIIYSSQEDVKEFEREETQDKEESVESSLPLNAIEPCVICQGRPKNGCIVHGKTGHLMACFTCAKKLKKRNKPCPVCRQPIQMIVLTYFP

Structure (SMILES) | fraction fluorescent probe displaced, Screen (Acid 91) | fraction fluorescent probe displaced, Replicate (Acid 91) | fraction fluorescent probe displaced, Screen (Acid 14) | fraction fluorescent probe displaced, Replicate (Acid 14) | further results
O=C1CCSSCCNC(=O)C2CN(C(=O)C=Cc3ccccc3)CCN2C(=O)CCNC(=O)C(Cc2ccccc2)N1 (stereo not shown) [X F B2 D7 Acid 91] | 0.03 | 0.04 |  |  | 
O=C1CCSSCCNC(=O)[C@H](CNC(=O)c2ccc(Cl)s2)NC(=O)[C@H]2CCCN(C2)C(=O)[C@H](Cc2ccccc2)N1 [X F B4 D3 Acid 14] |  |  | 0.23 | 0.17 | 
O=C1CCSSCCNC(=O)C(CNC(=O)c2ccc(Cl)cc2)NC(=O)C2CCCN(C2)C(=O)C(Cc2ccccc2)N1 (stereo not shown) [X F B4 D3 Acid 25] |  |  |  |  | fraction fluorescent probe displaced, Screen (Acid 25): 0.12; fraction fluorescent probe displaced, Replicate (Acid 25): 0.22
O=C(/C=C/c1ccccc1)NC[C@@H]1NC(=O)[C@H]2CCCN(C2)C(=O)[C@H](Cc2ccccc2)NC(=O)CCSSCCNC1=O [X F B4 D3 Acid 91] | 0.19 | 0.17 |  |  | 
O=C1CCSSCCNC(=O)C2CC(NC(=O)c3ccc(Cl)s3)CN2C(=O)C2CCCN(C2)C(=O)C(Cc2ccccc2)N1 (stereo not shown) [X F B4 D5 Acid 14] |  |  | 0.08 | 0.0465 | 
O=C1CCSSCCNC(=O)C2(CCN(C(=O)c3ccc(Cl)s3)CC2)NC(=O)[C@H]2CCCN(C2)C(=O)[C@H](Cc2ccccc2)N1 [X F B4 D6 Acid 14] |  |  | 0.08 | 0.20 | 
O=C1CCSSCCNC(=O)C2(CCN(C(=O)c3ccc(Cl)cc3)CC2)NC(=O)C2CCCN(C2)C(=O)C(Cc2ccccc2)N1 (stereo not shown) [X F B4 D6 Acid 25] |  |  |  |  | fraction fluorescent probe displaced, Screen (Acid 25): 0.15; fraction fluorescent probe displaced, Replicate (Acid 25): 0.07
O=C1CCSSCCNC(=O)C2(CCN(C(=O)/C=C/c3ccccc3)CC2)NC(=O)[C@H]2CCCN(C2)C(=O)[C@H](Cc2ccccc2)N1 [X F B4 D6 Acid 91] | 0.0563 | -0.00827 |  |  | 
O=C1CCSSCCNC(=O)C2CN(C(=O)C=Cc3ccccc3)CCN2C(=O)C2CCCN(C2)C(=O)C(Cc2ccccc2)N1 (stereo not shown) [X F B4 D7 Acid 91] | 0.0563 | 0.0168 |  |  | 
O=C1CCSSCCNC(=O)C(CNC(=O)c2ccc(Cl)s2)NC(=O)c2cccc(c2)CNC(=O)C(Cc2ccccc2)N1 (stereo not shown) [X F B5 D3 Acid 14] |  |  | 0.08 | -0.00432 | 
O=C(/C=C/c1ccccc1)NC[C@@H]1NC(=O)c2cccc(c2)CNC(=O)[C@H](Cc2ccccc2)NC(=O)CCSSCCNC1=O [X F B5 D3 Acid 91] | -0.05 | 0.04 |  |  | 
O=C1CCSSCCNC(=O)[C@@H]2C[C@H](NC(=O)c3ccc(Cl)cc3)CN2C(=O)c2cccc(c2)CNC(=O)[C@H](Cc2ccccc2)N1 [X F B5 D5 Acid 25] |  |  |  |  | fraction fluorescent probe displaced, Screen (Acid 25): 0.0244; fraction fluorescent probe displaced, Replicate (Acid 25): -0.00432
O=C1CCSSCCNC(=O)C2(CCN(C(=O)c3ccc(Cl)s3)CC2)NC(=O)c2cccc(c2)CNC(=O)C(Cc2ccccc2)N1 (stereo not shown) [X F B5 D6 Acid 14] |  |  | 0.11 | 0.10 | 
O=C1CCSSCCNC(=O)C2(CCN(C(=O)c3ccc(Cl)cc3)CC2)NC(=O)c2cccc(c2)CNC(=O)[C@H](Cc2ccccc2)N1 [X F B5 D6 Acid 25] |  |  |  |  | fraction fluorescent probe displaced, Screen (Acid 25): 0.0569; fraction fluorescent probe displaced, Replicate (Acid 25): 0.0465
O=C1CCSSCCNC(=O)C2(CCN(C(=O)/C=C/c3ccccc3)CC2)NC(=O)c2cccc(c2)CNC(=O)[C@H](Cc2ccccc2)N1 [X F B5 D6 Acid 91] | -0.08 | -0.00827 |  |  | 
O=C1CCSSCCNC(=O)C2CN(C(=O)C=Cc3ccccc3)CCN2C(=O)c2cccc(c2)CNC(=O)C(Cc2ccccc2)N1 (stereo not shown) [X F B5 D7 Acid 91] | -0.10 | -0.0333 |  |  | 
O=C1CCSSCCNC(=O)[C@@H]2CCCN2C(=O)[C@H](CNC(=O)c2ccc(Cl)s2)NC(=O)[C@H](Cc2ccccc2)N1 [X F D3 B1 Acid 14] ([Mpa]F[Dap](2Thenoyl(5-Cl))P-Cysteamide; disulfide 1-C) |  |  | 0.08 | 0.10 | 
O=C1CCSSCCNC(=O)[C@@H]2CCCN2C(=O)[C@H](CNC(=O)c2ccc(Cl)cc2)NC(=O)[C@H](Cc2ccccc2)N1 [X F D3 B1 Acid 25] ([Mpa]F[Dap](Benzoyl(4-Cl))P-Cysteamide; disulfide 1-C) |  |  |  |  | fraction fluorescent probe displaced, Screen (Acid 25): 0.0569; fraction fluorescent probe displaced, Replicate (Acid 25): 0.15
O=C1CCNC(=O)[C@H](CNC(=O)c2ccc(Cl)cc2)NC(=O)[C@H](Cc2ccccc2)NC(=O)CCSSCCN1 [X F D3 B2 Acid 25] |  |  |  |  | fraction fluorescent probe displaced, Screen (Acid 25): 0.19; fraction fluorescent probe displaced, Replicate (Acid 25): 0.0211
O=C1CCSSCCNC(=O)[C@H]2CCCN(C2)C(=O)[C@H](CNC(=O)c2ccc(Cl)cc2)NC(=O)[C@H](Cc2ccccc2)N1 [X F D3 B4 Acid 25] |  |  |  |  | fraction fluorescent probe displaced, Screen (Acid 25): 0.12; fraction fluorescent probe displaced, Replicate (Acid 25): 0.10
O=C1CCSSCCNC(=O)c2cccc(c2)CNC(=O)[C@H](CNC(=O)c2ccc(Cl)cc2)NC(=O)[C@H](Cc2ccccc2)N1 [X F D3 B5 Acid 25] |  |  |  |  | fraction fluorescent probe displaced, Screen (Acid 25): 0.0569; fraction fluorescent probe displaced, Replicate (Acid 25): 0.07
O=C1CCSSCCNC(=O)[C@@H]2CCCN2C(=O)C2(CCN(C(=O)c3ccc(Cl)cc3)CC2)NC(=O)[C@H](Cc2ccccc2)N1 [X F D6 B1 Acid 25] ([Mpa]F[Api](Benzoyl(4-Cl))P-Cysteamide; disulfide 1-C) |  |  |  |  | fraction fluorescent probe displaced, Screen (Acid 25): 0.0244; fraction fluorescent probe displaced, Replicate (Acid 25): 0.17
O=C1CCSSCCNC(=O)[C@H]2CCCN(C2)C(=O)C2(CCN(C(=O)c3ccc(Cl)cc3)CC2)NC(=O)[C@H](Cc2ccccc2)N1 [X F D6 B4 Acid 25] |  |  |  |  | fraction fluorescent probe displaced, Screen (Acid 25): -0.00813; fraction fluorescent probe displaced, Replicate (Acid 25): 0.07

Continued, in another order:

fraction fluorescent probe displaced, Screen (Acid 91) | fraction fluorescent probe displaced, Replicate (Acid 91) | fraction fluorescent probe displaced, Screen (Acid 14) | fraction fluorescent probe displaced, Replicate (Acid 14) | Structure (SMILES) | further results
-0.0241 | -0.00827 |  |  | O=C(/C=C/c1ccccc1)NC[C@@H]1NC(=O)[C@H](Cc2ccccc2)NC(=O)CCSSCCNC(=O)[C@@H]2CCCN2C1=O [X F D3 B1 Acid 91] ([Mpa]F[Dap](X1)P-Cysteamide; disulfide 1-C) | 
 |  | 0.053 | 0.0465 | O=C1CCNC(=O)C(CNC(=O)c2ccc(Cl)s2)NC(=O)C(Cc2ccccc2)NC(=O)CCSSCCN1 (stereo not shown) [X F D3 B2 Acid 14] | 
 |  | 0.053 | 0.10 | O=C1CCSSCCNC(=O)[C@H]2CCCN(C2)C(=O)[C@H](CNC(=O)c2ccc(Cl)s2)NC(=O)[C@H](Cc2ccccc2)N1 [X F D3 B4 Acid 14] | 
0.11 | -0.0333 |  |  | O=C(/C=C/c1ccccc1)NC[C@@H]1NC(=O)[C@H](Cc2ccccc2)NC(=O)CCSSCCNC(=O)[C@H]2CCCN(C2)C1=O [X F D3 B4 Acid 91] | 
 |  | 0.0241 | -0.03 | O=C1CCSSCCNC(=O)c2cccc(c2)CNC(=O)[C@H](CNC(=O)c2ccc(Cl)s2)NC(=O)[C@H](Cc2ccccc2)N1 [X F D3 B5 Acid 14] | 
 |  | 0.14 | 0.0465 | O=C1CCSSCCNC(=O)[C@@H]2CCCN2C(=O)[C@@H]2C[C@H](NC(=O)c3ccc(Cl)s3)CN2C(=O)[C@H](Cc2ccccc2)N1 [X F D5 B1 Acid 14] ([Mpa]F[Pro(4S-NHCO(5-Cl-2-thienyl))]P-Cysteamide; disulfide 1-C) | 
-0.05 | -0.11 |  |  | O=C(C=Cc1ccccc1)NC1CC2C(=O)N3CCCC3C(=O)NCCSSCCC(=O)NC(Cc3ccccc3)C(=O)N2C1 (stereo not shown) [X F D5 B1 Acid 91] | 
0.08 | 0.0168 |  |  | O=C(C=Cc1ccccc1)NC1CC2C(=O)NCCC(=O)NCCSSCCC(=O)NC(Cc3ccccc3)C(=O)N2C1 (stereo not shown) [X F D5 B2 Acid 91] | 
 |  | -0.00483 | 0.0211 | O=C1CCSSCCNC(=O)C2CCCN(C2)C(=O)C2CC(NC(=O)c3ccc(Cl)s3)CN2C(=O)C(Cc2ccccc2)N1 (stereo not shown) [X F D5 B4 Acid 14] | 
 |  | -0.00483 | -0.00432 | O=C1CCSSCCNC(=O)c2cccc(c2)CNC(=O)C2CC(NC(=O)c3ccc(Cl)s3)CN2C(=O)C(Cc2ccccc2)N1 (stereo not shown) [X F D5 B5 Acid 14] | 
-0.05 | -0.0333 |  |  | O=C(C=Cc1ccccc1)NC1CC2C(=O)NCc3cccc(c3)C(=O)NCCSSCCC(=O)NC(Cc3ccccc3)C(=O)N2C1 (stereo not shown) [X F D5 B5 Acid 91] | 
-0.08 | 0.04 |  |  | O=C1CCSSCCNC(=O)C2CCCN2C(=O)C2(CCN(C(=O)C=Cc3ccccc3)CC2)NC(=O)C(Cc2ccccc2)N1 (stereo not shown) [X F D6 B1 Acid 91] ([Mpa]F[Api](X2)P-Cysteamide; disulfide 1-C; configuration not given here) | 
 |  | -0.00483 | 0.0465 | O=C1CCNC(=O)C2(CCN(C(=O)c3ccc(Cl)s3)CC2)NC(=O)[C@H](Cc2ccccc2)NC(=O)CCSSCCN1 [X F D6 B2 Acid 14] | 
0.03 | -0.00827 |  |  | O=C1CCNC(=O)C2(CCN(C(=O)/C=C/c3ccccc3)CC2)NC(=O)[C@H](Cc2ccccc2)NC(=O)CCSSCCN1 [X F D6 B2 Acid 91] | 
 |  | 0.053 | 0.10 | O=C1CCSSCCNC(=O)[C@H]2CCCN(C2)C(=O)C2(CCN(C(=O)c3ccc(Cl)s3)CC2)NC(=O)[C@H](Cc2ccccc2)N1 [X F D6 B4 Acid 14] | 
